We go through 29 molecules from ChEMBL document CHEMBL1156968, “2,5-Disubstituted pyridines as potent GPR119 agonists” (Bioorg Med Chem Lett, 2010).

In general, EC50 refers to the concentration giving half of the maximal effect. A higher EC50 goes with weaker potency. Usually Tmax stands for the time at which the peak concentration occurs. As a reminder, the half-life is how long it takes for the measured level to halve. A lower half-life goes with fast loss. Usually bioavailability stands for the share of a dose that reaches the circulation, judged against a reference dose that is usually intravenous. A word on the AUC: it is concentration integrated over time. The term clearance denotes the volume of plasma or blood freed of the substance per unit of time. Read a high clearance as efficient removal. For orientation: solubility means how much of the substance goes into solution per volume. Low readings indicate little dissolved substance, high ones much dissolved substance. By Cmax is commonly meant the peak of the concentration-time curve.

SMILES strings stand for the structures. In brackets after ≈: the same amount, converted by molar mass. Some results are limits rather than exact numbers.

Data set [1] addresses T1, Glucose-dependent insulinotropic receptor (Homo sapiens) (UniProt Q8TDV5).
T1 sequence (whole entry): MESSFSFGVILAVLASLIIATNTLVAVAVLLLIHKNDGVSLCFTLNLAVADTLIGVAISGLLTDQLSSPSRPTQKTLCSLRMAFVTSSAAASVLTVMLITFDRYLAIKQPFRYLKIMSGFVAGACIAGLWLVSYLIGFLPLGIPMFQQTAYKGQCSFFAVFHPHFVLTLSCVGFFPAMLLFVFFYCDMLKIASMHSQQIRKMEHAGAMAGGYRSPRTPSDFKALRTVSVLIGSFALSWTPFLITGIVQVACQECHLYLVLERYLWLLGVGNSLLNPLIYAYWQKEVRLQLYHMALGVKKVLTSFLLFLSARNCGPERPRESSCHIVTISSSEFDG
The experiment in a line: Agonist activity at human GPR119 receptor expressed in CHO-K1 cells co-transfected with 6CRE-Luc after 5 hrs by luciferase reporter gene assay relative to N-(4-(1H-1,2,4-triazol-1-yl)phenyl)-5-nitro-6-(4-(pyridin-2-ylthio)piperidin-1-yl)pyrimidin-4-amine maximal response. It counts as functional, cell-based.

For data set [2], the target named is T2, Glucose-dependent insulinotropic receptor (Homo sapiens, UniProt Q8TDV5).
T2 sequence (Q8TDV5 whole entry): T1 sequence (whole entry)
The experiment in a line: Agonist activity at human GPR119 receptor expressed in CHO-K1 cells co-transfected with 6CRE-Luc after 5 hrs by luciferase reporter gene assay. It counts as functional, cell-based. (In general: A reporter such as luciferase makes a cellular process visible.)

Data set [3] in a line: Membrane permeability by PAMPA method. It counts as ADME. The conditions noted are these: read-out: permeability. (In general: PAMPA measures passive passage across an artificial lipid membrane.)
Data set [4] is described as follows: Tmax in mouse at 30 mg/kg, po. It counts as ADME, organism-based. Also on record: dose 30 mg/kg, route oral. The conditions noted are these: in vivo.
A short description of data set [5]: Half life in mouse at 30 mg/kg, po. The conditions noted are these: in vivo. It counts as ADME, organism-based. More on the design: dose 30 mg/kg, route oral.
A short description of data set [6]: Oral bioavailability in mouse at 30 mg/kg. To be noted: in vivo. It counts as ADME, organism-based.
Data set [7] is described as follows: AUC (0 to 24) in mouse at 30 mg/kg, po. It counts as ADME, organism-based. Also on record: time < 24 hr, dose 30 mg/kg, route oral. To be noted: plasma.
The nature of data set [8]: Half life in mouse at 3 mg/kg, iv. It counts as ADME, organism-based. To be noted: in vivo. More on the design: dose 3 mg/kg, route intravenous.
The nature of data set [9]: Volume of distribution at steady state in mouse at 3 mg/kg, iv. The conditions noted are these: in vivo, read-out: Vdss. It counts as ADME, organism-based. More on the design: dose 3 mg/kg, route intravenous.
Another data set concerns Mus musculus. As to the kind of experiment: Clearance in mouse at 3 mg/kg, iv. It counts as ADME, organism-based. Also on record: dose 3 mg/kg, route intravenous. To be noted: in vivo.
A short description of data set [10]: Solubility in fasted simulated intestinal fluid at pH 6.5. It counts as physicochemical.
The nature of data set [11]: Cmax in mouse at 3 mg/kg, iv. To be noted: in vivo. More on the design: dose 3 mg/kg, route intravenous. It counts as ADME, organism-based.
The nature of data set [12]: AUC (0 to 24) in mouse at 3 mg/kg, iv. To be noted: plasma. It counts as ADME, organism-based. More on the design: time < 24 hr, dose 3 mg/kg, route intravenous.
Data set [13] in a line: Tmax in mouse at 3 mg/kg, iv. Also on record: dose 3 mg/kg, route intravenous. It counts as ADME, organism-based. To be noted: in vivo.
A short description of data set [14]: Cmax in mouse at 30 mg/kg, po. It counts as ADME, organism-based. More on the design: dose 30 mg/kg, route oral. To be noted: in vivo.
Data set [15] deals with T2, Glucose-dependent insulinotropic receptor. The experiment in a line: Agonist activity at human GPR119 receptor by cAMP mobilization assay. It counts as functional.

The molecule `CC(C)OC(=O)N1CCC(COc2ccc(N3CCN(S(=O)(=O)c4cccnc4)CC3)nc2)CC1` came in with an Activity in data set [1] of 100%. In addition, in data set [2], the EC50 amounted to 2000 nM.

In [1], `COCCS(=O)(=O)N1CCN(c2ccc(OCC3CCN(C(=O)OC(C)C)CC3)cn2)CC1` had an Activity of 178%. In addition, the EC50 in [2] is 300 nM.

Regarding `CCCS(=O)(=O)N1CCN(c2ccc(OCC3CCN(C(=O)N4CCOCC4)CC3)cn2)CC1`, the Activity in data set [1] was 41%. In addition, the EC50 in [2] is more than 10000 nM.

In data set [1], `CCN(CC)S(=O)(=O)N1CCN(c2ccc(OCC3CCN(C(=O)OC(C)C)CC3)cn2)CC1` returned an Activity of 125%. In addition, the EC50 in [2] came out at 1200 nM.

`CCS(=O)(=O)N1CCN(c2ccc(OCCC3CCN(C(=O)OC(C)C)CC3)cn2)CC1` had an Activity in [1] of 69%. The EC50 in data set [2] is 1200 nM.

Molecule `CC(C)NC(=O)CN1CCN(c2ccc(OCC3CCN(C(=O)OC(C)C)CC3)cn2)CC1` displayed an Activity in data set [1] of 11%. In data set [2], this molecule returned an EC50 of more than 10000 nM.

With `CC(C)OC(=O)N1CCC(COc2ccc(N3CCN(S(=O)(=O)C(C)C)CC3)nc2)CC1`, in data set [1], the Activity amounted to 171%. The molecule also had an EC50 in data set [2] of 300 nM.

Molecule `CC(C)OC(=O)N1CCC(COc2ccc(N3CCN(S(=O)(=O)c4cccs4)CC3)nc2)CC1` had an Activity in data set [1] of 69%. This molecule showed an EC50 in data set [2] of 1800 nM.

Take `CCS(=O)(=O)N1CCN(c2ccc(OC3CCN(C(=O)OC(C)C)CC3)cn2)CC1`: the Activity in data set [1] amounted to 93%. The molecule also gave an EC50 in data set [2] of 2100 nM.

In the case of `CCCS(=O)(=O)N1CCN(c2ccc(OCC3CCN(C(=O)CC(C)C)CC3)cn2)CC1`, the Activity in [1] came out at 186%. Further, the EC50 in [2] was determined as 1600 nM.

On to `CC(C)OC(=O)N1CCC(COc2ccc(N3CCN(C(=O)N(C)C)CC3)nc2)CC1`, for which, in [1], the Activity turned out to be 23%. In [2], this molecule registered an EC50 of more than 10000 nM.

`COCCN1CCN(c2ccc(OCC3CCN(C(=O)OC(C)C)CC3)cn2)CC1` displayed an Activity in [1] of 28%. In addition, in [2], it took 2600 nM to reach a half-maximal effect (EC50).

Consider `CC(C)OC(=O)N1CCC(COc2ccc(N3CCN(S(=O)(=O)C4CCCCC4)CC3)nc2)CC1`, for which the Activity in data set [1] came out at 165%. Also, the response in data set [2] was half-maximal at 200 nM (EC50).

Molecule `CCCS(=O)(=O)N1CCN(c2ccc(OCC3CCN(C(=O)CC(C)(C)C)CC3)cn2)CC1` yielded an Activity in data set [1] of 175%. In data set [2], this molecule had an EC50 of 2800 nM.

As to `CCCS(=O)(=O)N1CCN(c2ccc(OCC3CCN(C(=O)NC(C)C)CC3)cn2)CC1`, the Activity in [1] was 45%. Moreover, the response in [2] was half-maximal at 1000 nM (EC50).

As for `CC(C)OC(=O)N1CCC(COc2ccc(N3CCN(S(=O)(=O)N4CCCCC4)CC3)nc2)CC1`, in data set [1], the Activity was 118%. In data set [2], this molecule returned an EC50 of 1000 nM.

Turning to `CCCS(=O)(=O)N1CCN(c2ccc(OCC3CCN(C(=O)NC(C)(C)C)CC3)cn2)CC1`, the Activity in data set [1] worked out at 75%. Besides, it took 800 nM to reach a half-maximal effect in data set [2] (EC50).

With `CCCS(=O)(=O)N1CCN(c2ccc(OCC3CCN(C(=O)NC4CCCCC4)CC3)cn2)CC1`, the Activity in [1] worked out at 16%. In addition, in data set [2], the EC50 was more than 10000 nM.

`CCCS(=O)(=O)N1CCN(c2ccc(OCC3CCN(C(=O)c4ccco4)CC3)cn2)CC1` came in with an Activity in data set [1] of 112%. This molecule also showed an EC50 in data set [2] of 2000 nM.

On to `CCCS(=O)(=O)N1CCN(c2ccc(OCC3CCN(C(=O)OC(C)C)CC3)cn2)CC1`, for which the Papp in data set [3] amounted to 47 ×10⁻⁶ cm/s. Further, the Tmax in [4] was 15 min; in [13], 45 min. Moreover, the values for the half-life in data set [5] and in [8] were 24 min and 37.2 min, respectively. In data set [6], this molecule registered a bioavailability of 8%. The molecule further came in with an Activity in data set [1] of 153%. Further, the AUC at 24 h was found to be 2350 ng·h/mL in [7] and 3130 ng·h/mL in data set [12]. In addition, in [9], the Vd is 0.76 L/kg. In the data set on Mus musculus, this molecule gave a clearance of 15.7 mL/min/kg. The amount in solution in [10] (solubility) came to 3.41 µg/mL (≈ 7.28 µM). The Cmax in data set [11] was found to be 3080 ng/mL; in [14], 3000 ng/mL. In addition, in data set [2], the EC50 worked out at 300 nM.

Take `CCCCS(=O)(=O)N1CCN(c2ccc(OCC3CCN(C(=O)OC(C)C)CC3)cn2)CC1`: in data set [1], the Activity was 164%. Also, the half-maximal effective concentration (EC50) in data set [2] was determined as 100 nM.

Regarding `CC(C)OC(=O)N1CCC(COc2ccc(N3CCN(C(=O)c4ccco4)CC3)nc2)CC1`, in data set [1], the Activity was found to be 112%. Besides, the EC50 in data set [2] came out at 1900 nM.

Take `CCCS(=O)(=O)N1CCN(c2ccc(OCC3CCN(C(=O)Nc4ccc(C(C)C)cc4)CC3)cn2)CC1`: the Activity in data set [1] was 67%. For the same molecule, the midpoint of the response in data set [2], the EC50, lay at 900 nM.

With `O=[N+]([O-])c1c(Nc2ccc(-n3cncn3)cc2)ncnc1N1CCC(Sc2ccccn2)CC1`, the EC50 in [15] amounted to 130 nM.

`CC(=O)N1CCN(c2ccc(OCC3CCN(C(=O)OC(C)C)CC3)cn2)CC1` registered an Activity in [1] of less than 10%. The EC50 in data set [2] is more than 10000 nM.

`CCCS(=O)(=O)N1CCN(c2ccc(OCCC3CCN(C(=O)OC(C)C)CC3)cn2)CC1` showed an Activity in data set [1] of 95%. In addition, a half-maximal effect in [2] (EC50) was put at 700 nM.

On to `CCS(=O)(=O)N1CCN(c2ccc(OCC3CCN(C(=O)OC(C)C)CC3)cn2)CC1`, for which the Activity in [1] turned out to be 167%. The molecule further returned an EC50 in data set [2] of 1300 nM.

In data set [1], `CCCS(=O)(=O)N1CCN(c2ccc(OCC3CCN(C(=O)C(F)F)CC3)cn2)CC1` displayed an Activity of 97%. This molecule also returned an EC50 in data set [2] of 2100 nM.

As for `CC(C)OC(=O)N1CCC(COc2ccc(N3CCN(S(=O)(=O)CC4CCCCC4)CC3)nc2)CC1`, in [1], the Activity stood at 136%. Moreover, in data set [2], a half-maximal effect (EC50) was put at 90 nM.
